Assay results reported in patent publication US12052991B2, “Substituted pyridinyloxybenzenes and salts thereof and use thereof as herbicidal agents” (Bayer Aktiengesellschaft, priority 2018, dated 2024).

Test system: Abutilon theophrasti (ABUTH)
Assay: Herbicidal pre-emergence action, test C (Table C5)
Type: in vivo
Conditions: dosage 320 g/ha; visual scoring after about 3 weeks; 100% = plants have died, 0% = like control plants
Summary of the method: (§1)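 In this test, soil-covered weed seeds in sandy loam received a surface application of compound at 1280 or 320 g/ha. Effects were rated visually as percentages compared with untreated controls roughly 3 weeks later.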

Row | Compound | Pre-emergence action against Abutilon theophrasti (ABUTH)
1 | Fc1cccc(Oc2ccc(Br)cn2)c1-c1cc(C(F)F)no1 [Example 1-40] | 100%

Same assay, conditions: dosage 1280 g/ha; visual scoring after about 3 weeks; 100% = plants have died, 0% = like control plants

Row | Compound | Pre-emergence action against Abutilon theophrasti (ABUTH)
2 | Fc1cccc(Oc2ccc(Br)cn2)c1-c1cc(C(F)F)no1 [Example 1-40] | 100%
3 | Fc1cc(Cl)cnc1Oc1ccccc1-c1cc(C(F)F)no1 [Example 1-36] | 100%

Test system: Stellaria media (STEME)
Assay: Herbicidal pre-emergence action, test C (Table C8)
Type: in vivo
Conditions: dosage 320 g/ha; visual scoring after about 3 weeks; 100% = plants have died, 0% = like control plants
Summary of the method: as §1

Row | Compound | Pre-emergence action against Stellaria media (STEME)
4 | Fc1cccc(Oc2ccc(Br)cn2)c1-c1cc(C(F)F)no1 [Example 1-40] | 100%
5 | Fc1cc(Cl)cnc1Oc1ccccc1-c1cc(C(F)F)no1 [Example 1-36] | 100%

Same assay, conditions: dosage 1280 g/ha; visual scoring after about 3 weeks; 100% = plants have died, 0% = like control plants

Row | Compound | Pre-emergence action against Stellaria media (STEME)
6 | Fc1cccc(Oc2ccc(Br)cn2)c1-c1cc(C(F)F)no1 [Example 1-40] | 100%
7 | Fc1cc(Cl)cnc1Oc1ccccc1-c1cc(C(F)F)no1 [Example 1-36] | 100%

Test system: Amaranthus retroflexus (AMARE)
Assay: Herbicidal post-emergence action (Table B6)
Type: in vivo
Conditions: dosage 320 g/ha; visual rating about 3 weeks after treatment; 100% = plants have died, 0% = like control plants
Summary of the method: (§2)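 Visual percent activity relative to untreated controls (100% = plants dead, 0% = like controls) was scored about 3 weeks after treatment. Plants had been sprayed at the one-leaf stage with formulated compound at 1280 or 320 g/ha in 600 L/ha water containing 0.5% additive.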

Row | Compound | Post-emergence action against Amaranthus retroflexus (AMARE)
8 | Fc1cccc(Oc2ccc(Br)cn2)c1-c1cc(C(F)F)no1 [Example 1-40] | 100%
9 | Fc1cc(Cl)cnc1Oc1ccccc1-c1cc(C(F)F)no1 [Example 1-36] | 100%

Same assay, conditions: dosage 1280 g/ha; visual rating about 3 weeks after treatment; 100% = plants have died, 0% = like control plants

Row | Compound | Post-emergence action against Amaranthus retroflexus (AMARE)
10 | Fc1cccc(Oc2ccc(Br)cn2)c1-c1cc(C(F)F)no1 [Example 1-40] | 100%
11 | Fc1cc(Cl)cnc1Oc1ccccc1-c1cc(C(F)F)no1 [Example 1-36] | 100%

Test system: Echinochloa crus-galli (ECHCG)
Assay: Herbicidal post-emergence action (Table B1)
Type: in vivo
Conditions: 320 g/ha; rated visually after about 3 weeks; 100% = plants have died, 0% = like control plants
Summary of the method: as §2

Row | Compound | Post-emergence action against Echinochloa crus-galli (ECHCG)
12 | Fc1cccc(Oc2ccc(Br)cn2)c1-c1cc(C(F)F)no1 [Example 1-40] | 100%
13 | Fc1cc(Cl)cnc1Oc1ccccc1-c1cc(C(F)F)no1 [Example 1-36] | 100%

Same assay, conditions: 1280 g/ha; rated visually after about 3 weeks; 100% = plants have died, 0% = like control plants

Row | Compound | Post-emergence action against Echinochloa crus-galli (ECHCG)
14 | Fc1cccc(Oc2ccc(Br)cn2)c1-c1cc(C(F)F)no1 [Example 1-40] | 100%
15 | Fc1cc(Cl)cnc1Oc1ccccc1-c1cc(C(F)F)no1 [Example 1-36] | 100%

Test system: harmful plants ABUTH, AMARE, ECHCG, LOLRI, MATIN, POAAN, SETVI, STEME, ALOMY, DIGSA, KCHSC and VERPE
Assay: Herbicidal post-emergence action, summary of Tables B1-B12
Type: in vivo
Conditions: application rate of 1280 or 320 g of active ingredient per hectare; summary in words
Summary of the method: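 Greenhouse weeds in sandy loam treated post-emergence at the one-leaf stage, 2–3 weeks after sowing, with WP or EC formulations sprayed with 0.5% additive at 600 L/ha water, 1280 or 320 g/ha. Damage rated visually after about 3 weeks versus untreated controls (0% = like control, 100% = dead).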

Row | Compound | herbicidal activity against the harmful plants of Tables B1-B12 in post-emergence treatment
16 | Fc1cccc(Oc2ccc(Br)cn2)c1-c1cc(C(F)F)no1 [Example 1-40] | very good herbicidal activity
17 | Fc1cc(Cl)cnc1Oc1ccccc1-c1cc(C(F)F)no1 [Example 1-36] | very good herbicidal activity

Test system: Abutilon theophrasti (ABUTH)
Assay: Herbicidal post-emergence action (Table B5)
Type: in vivo
Conditions: 320 g/ha; rated visually after about 3 weeks; 100% = plants have died, 0% = like control plants
Summary of the method: as §2

Row | Compound | Post-emergence action against Abutilon theophrasti (ABUTH)
18 | Fc1cccc(Oc2ccc(Br)cn2)c1-c1cc(C(F)F)no1 [Example 1-40] | 100%
19 | Fc1cc(Cl)cnc1Oc1ccccc1-c1cc(C(F)F)no1 [Example 1-36] | 100%

Same assay, conditions: 1280 g/ha; rated visually after about 3 weeks; 100% = plants have died, 0% = like control plants

Row | Compound | Post-emergence action against Abutilon theophrasti (ABUTH)
20 | Fc1cccc(Oc2ccc(Br)cn2)c1-c1cc(C(F)F)no1 [Example 1-40] | 100%
21 | Fc1cc(Cl)cnc1Oc1ccccc1-c1cc(C(F)F)no1 [Example 1-36] | 100%

Test system: Stellaria media (STEME)
Assay: Herbicidal post-emergence action (Table B8)
Type: in vivo
Conditions: dosage 320 g/ha; visual rating about 3 weeks after treatment; 100% = plants have died, 0% = like control plants
Summary of the method: as §2

Row | Compound | Post-emergence action against Stellaria media (STEME)
22 | Fc1cccc(Oc2ccc(Br)cn2)c1-c1cc(C(F)F)no1 [Example 1-40] | 100%
23 | Fc1cc(Cl)cnc1Oc1ccccc1-c1cc(C(F)F)no1 [Example 1-36] | 100%

Same assay, conditions: dosage 1280 g/ha; visual rating about 3 weeks after treatment; 100% = plants have died, 0% = like control plants

Row | Compound | Post-emergence action against Stellaria media (STEME)
24 | Fc1cccc(Oc2ccc(Br)cn2)c1-c1cc(C(F)F)no1 [Example 1-40] | 100%
25 | Fc1cc(Cl)cnc1Oc1ccccc1-c1cc(C(F)F)no1 [Example 1-36] | 100%

Test system: Poa annua (POAAN)
Assay: Herbicidal pre-emergence action, test C (Table C3)
Type: in vivo
Conditions: dosage 320 g/ha; visual scoring after about 3 weeks; 100% = plants have died, 0% = like control plants
Summary of the method: as §1

Row | Compound | Pre-emergence action against Poa annua (POAAN)
26 | Fc1cccc(Oc2ccc(Br)cn2)c1-c1cc(C(F)F)no1 [Example 1-40] | 100%
27 | Fc1cc(Cl)cnc1Oc1ccccc1-c1cc(C(F)F)no1 [Example 1-36] | 100%

Same assay, conditions: dosage 1280 g/ha; visual scoring after about 3 weeks; 100% = plants have died, 0% = like control plants

Row | Compound | Pre-emergence action against Poa annua (POAAN)
28 | Fc1cccc(Oc2ccc(Br)cn2)c1-c1cc(C(F)F)no1 [Example 1-40] | 100%
29 | Fc1cc(Cl)cnc1Oc1ccccc1-c1cc(C(F)F)no1 [Example 1-36] | 100%

Test system: Poa annua (POAAN)
Assay: Herbicidal post-emergence action (Table B3)
Type: in vivo
Conditions: 320 g/ha; rated visually after about 3 weeks; 100% = plants have died, 0% = like control plants
Summary of the method: as §2

Row | Compound | Post-emergence action against Poa annua (POAAN)
30 | Fc1cccc(Oc2ccc(Br)cn2)c1-c1cc(C(F)F)no1 [Example 1-40] | 100%
31 | Fc1cc(Cl)cnc1Oc1ccccc1-c1cc(C(F)F)no1 [Example 1-36] | 100%

Same assay, conditions: 1280 g/ha; rated visually after about 3 weeks; 100% = plants have died, 0% = like control plants

Row | Compound | Post-emergence action against Poa annua (POAAN)
32 | Fc1cccc(Oc2ccc(Br)cn2)c1-c1cc(C(F)F)no1 [Example 1-40] | 100%
33 | Fc1cc(Cl)cnc1Oc1ccccc1-c1cc(C(F)F)no1 [Example 1-36] | 100%

Test system: harmful plants ABUTH, AMARE, ECHCG, LOLRI, MATIN, POAAN, SETVI, STEME, ALOMY, DIGSA, KCHSC and VERPE
Assay: Herbicidal pre-emergence action (test C), summary of Tables C1-C12
Type: in vivo
Conditions: application rate of 1280 or 320 g of active ingredient per hectare; summary in words
Summary of the method: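 Pre-emergence pot test in sandy loam: WP or EC formulations were sprayed onto the covering soil with 0.5% additive at 600 L/ha water, at 1280 or 320 g/ha. Plants were kept in the greenhouse, and activity was rated visually about 3 weeks later as % versus untreated controls (100% = dead).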

Row | Compound | herbicidal activity against the harmful plants of Tables C1-C12 in pre-emergence treatment
34 | Fc1cccc(Oc2ccc(Br)cn2)c1-c1cc(C(F)F)no1 [Example 1-40] | very good herbicidal activity
35 | Fc1cc(Cl)cnc1Oc1ccccc1-c1cc(C(F)F)no1 [Example 1-36] | very good herbicidal activity

Test system: Lolium rigidum (LOLRI)
Assay: Herbicidal pre-emergence action, test C (Table C2)
Type: in vivo
Conditions: dosage 320 g/ha; visual scoring after about 3 weeks; 100% = plants have died, 0% = like control plants
Summary of the method: as §1

Row | Compound | Pre-emergence action against Lolium rigidum (LOLRI)
36 | Fc1cccc(Oc2ccc(Br)cn2)c1-c1cc(C(F)F)no1 [Example 1-40] | 90%

Same assay, conditions: dosage 1280 g/ha; visual scoring after about 3 weeks; 100% = plants have died, 0% = like control plants

Row | Compound | Pre-emergence action against Lolium rigidum (LOLRI)
37 | Fc1cccc(Oc2ccc(Br)cn2)c1-c1cc(C(F)F)no1 [Example 1-40] | 100%
38 | Fc1cc(Cl)cnc1Oc1ccccc1-c1cc(C(F)F)no1 [Example 1-36] | 90%

Test system: Amaranthus retroflexus (AMARE)
Assay: Herbicidal pre-emergence action, test C (Table C6)
Type: in vivo
Conditions: dosage 320 g/ha; visual scoring after about 3 weeks; 100% = plants have died, 0% = like control plants
Summary of the method: as §1

Row | Compound | Pre-emergence action against Amaranthus retroflexus (AMARE)
39 | Fc1cccc(Oc2ccc(Br)cn2)c1-c1cc(C(F)F)no1 [Example 1-40] | 100%
40 | Fc1cc(Cl)cnc1Oc1ccccc1-c1cc(C(F)F)no1 [Example 1-36] | 100%

Same assay, conditions: dosage 1280 g/ha; visual scoring after about 3 weeks; 100% = plants have died, 0% = like control plants

Row | Compound | Pre-emergence action against Amaranthus retroflexus (AMARE)
41 | Fc1cccc(Oc2ccc(Br)cn2)c1-c1cc(C(F)F)no1 [Example 1-40] | 100%
42 | Fc1cc(Cl)cnc1Oc1ccccc1-c1cc(C(F)F)no1 [Example 1-36] | 100%

Test system: Lolium rigidum (LOLRI)
Assay: Herbicidal post-emergence action (Table B2)
Type: in vivo
Conditions: 320 g/ha; rated visually after about 3 weeks; 100% = plants have died, 0% = like control plants
Summary of the method: as §2

Row | Compound | Post-emergence action against Lolium rigidum (LOLRI)
43 | Fc1cccc(Oc2ccc(Br)cn2)c1-c1cc(C(F)F)no1 [Example 1-40] | 100%

Same assay, conditions: 1280 g/ha; rated visually after about 3 weeks; 100% = plants have died, 0% = like control plants

Row | Compound | Post-emergence action against Lolium rigidum (LOLRI)
44 | Fc1cccc(Oc2ccc(Br)cn2)c1-c1cc(C(F)F)no1 [Example 1-40] | 100%
45 | Fc1cc(Cl)cnc1Oc1ccccc1-c1cc(C(F)F)no1 [Example 1-36] | 100%

Test system: Echinochloa crus-galli (ECHCG)
Assay: Herbicidal pre-emergence action, test C (Table C1)
Type: in vivo
Conditions: dosage 320 g/ha; visual scoring after about 3 weeks; 100% = plants have died, 0% = like control plants
Summary of the method: as §1

Row | Compound | Pre-emergence action against Echinochloa crus-galli (ECHCG)
46 | Fc1cccc(Oc2ccc(Br)cn2)c1-c1cc(C(F)F)no1 [Example 1-40] | 100%

Same assay, conditions: dosage 1280 g/ha; visual scoring after about 3 weeks; 100% = plants have died, 0% = like control plants

Row | Compound | Pre-emergence action against Echinochloa crus-galli (ECHCG)
47 | Fc1cccc(Oc2ccc(Br)cn2)c1-c1cc(C(F)F)no1 [Example 1-40] | 100%
48 | Fc1cc(Cl)cnc1Oc1ccccc1-c1cc(C(F)F)no1 [Example 1-36] | 100%

Test system: Setaria viridis (SETVI)
Assay: Herbicidal pre-emergence action, test C (Table C4)
Type: in vivo
Conditions: dosage 320 g/ha; visual scoring after about 3 weeks; 100% = plants have died, 0% = like control plants
Summary of the method: as §1

Row | Compound | Pre-emergence action against Setaria viridis (SETVI)
49 | Fc1cccc(Oc2ccc(Br)cn2)c1-c1cc(C(F)F)no1 [Example 1-40] | 100%
50 | Fc1cc(Cl)cnc1Oc1ccccc1-c1cc(C(F)F)no1 [Example 1-36] | 100%

Same assay, conditions: dosage 1280 g/ha; visual scoring after about 3 weeks; 100% = plants have died, 0% = like control plants

Row | Compound | Pre-emergence action against Setaria viridis (SETVI)
51 | Fc1cccc(Oc2ccc(Br)cn2)c1-c1cc(C(F)F)no1 [Example 1-40] | 100%
52 | Fc1cc(Cl)cnc1Oc1ccccc1-c1cc(C(F)F)no1 [Example 1-36] | 100%

Test system: Setaria viridis (SETVI)
Assay: Herbicidal post-emergence action (Table B4)
Type: in vivo
Conditions: 320 g/ha; rated visually after about 3 weeks; 100% = plants have died, 0% = like control plants
Summary of the method: as §2

Row | Compound | Post-emergence action against Setaria viridis (SETVI)
53 | Fc1cccc(Oc2ccc(Br)cn2)c1-c1cc(C(F)F)no1 [Example 1-40] | 100%

Same assay, conditions: 1280 g/ha; rated visually after about 3 weeks; 100% = plants have died, 0% = like control plants

Row | Compound | Post-emergence action against Setaria viridis (SETVI)
54 | Fc1cccc(Oc2ccc(Br)cn2)c1-c1cc(C(F)F)no1 [Example 1-40] | 100%
55 | Fc1cc(Cl)cnc1Oc1ccccc1-c1cc(C(F)F)no1 [Example 1-36] | 100%
